Values of other authors as cited in patent publication US20220347150A1, “TASIMELTEON USE IN TREATING SLEEP ABERRATIONS” (Vanda Pharmaceuticals Inc., priority 2019, published 2022).

Assays:
[1] = subjects with a 5-hour advance in sleep-wake cycle; treatment relative to placebo; reported in US 20090105333A1 (WO2007/137244)
[2] = preclinical models of acute phase-shifting and chronic re-entrainment

In the case of `CCC(=O)NC[C@@H]1C[C@H]1c1cccc2c1CCO2` [tasimelteon, Tasimelteon], the “shifting dim light melatonin onset” value [1] is listed as “positive outcomes”, the sleep efficacy [1] is listed as “positive outcomes” and the chronobiotic activity [2] is listed as “potent chronobiotic activity”.
